Read-outs that look alike come from different tables or passages of the source.
Assays:
WT-TbpA [1] = biological target: T1, WT-TbpA (Escherichia coli, UniProt P31550)
Y27A-TbpA = biological target: T2, Y27A-TbpA (Escherichia coli, UniProt P31550, Y27A); assay: Nanopore recording of ligand binding to Y27A-TbpA inside ClyA-AS
T2 sequence (P31550 19-327 Y27A): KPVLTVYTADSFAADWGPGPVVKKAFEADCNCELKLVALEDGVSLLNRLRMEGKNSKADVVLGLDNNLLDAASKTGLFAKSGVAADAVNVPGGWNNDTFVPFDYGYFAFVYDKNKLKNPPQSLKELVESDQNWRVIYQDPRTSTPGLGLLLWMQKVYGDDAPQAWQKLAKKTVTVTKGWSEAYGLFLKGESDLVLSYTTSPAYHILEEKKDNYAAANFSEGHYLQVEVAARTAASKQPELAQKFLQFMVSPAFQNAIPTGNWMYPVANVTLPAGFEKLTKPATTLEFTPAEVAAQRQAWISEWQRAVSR

WT-TbpA [2] = biological target: T1, WT-TbpA; assay: biochemical

T1 sequence (P31550 19-327): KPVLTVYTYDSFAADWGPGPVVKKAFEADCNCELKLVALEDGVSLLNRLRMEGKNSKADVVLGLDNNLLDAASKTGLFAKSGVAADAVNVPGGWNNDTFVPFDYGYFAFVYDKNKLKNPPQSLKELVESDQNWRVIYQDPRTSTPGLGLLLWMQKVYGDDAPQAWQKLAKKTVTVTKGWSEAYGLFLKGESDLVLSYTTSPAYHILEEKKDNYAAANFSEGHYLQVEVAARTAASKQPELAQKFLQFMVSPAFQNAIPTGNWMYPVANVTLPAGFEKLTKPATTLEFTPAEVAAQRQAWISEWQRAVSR

How did the “ΔIres%(thiamine)” value (WT-TbpA [1]; WT-TbpA 15 nM cis, 4 μM thiamine added to cis, −45 mV, 150 mM NaCl, 15 mM Tris.HCl pH 7.5) turn out when `Cc1ncc(C[n+]2csc(CCO)c2C)c(N)n1` [thiamine, Thiamine] was run?
The value was 3.1±0.6%.

And the “Ires%(thiamine), closed state” value (WT-TbpA [1]; WT-TbpA, thiamine-bound state)?
The value was 45.9±0.8%.

And the “effect of addition of thiamine to the trans solution” value (WT-TbpA [1]; thiamine added to trans, WT-TbpA in cis)?
Its value is “did not elicit additional current blockades”.

And the Kd (Y27A-TbpA; Kd app(cis), thiamine added to cis, Hill curve fit to bound fraction)?
The Kd was 23.1 ± 0.1 nM.

What about the Kd (Y27A-TbpA; Kd app(trans), thiamine added to trans) of the same compound?
Its Kd is 91.1 ± 0.4 nM.

And the “difference in apparent Kd between cis and trans” value (Y27A-TbpA; Y27A-TbpA)?
Its value is 4 fold.

And the “difference in k on rates between cis and trans” value (Y27A-TbpA; Y27A-TbpA)?
The value was 4 fold.

And the “ΔIres%(thiamine)” value (Y27A-TbpA; Y27A-TbpA 15 nM cis, 4 μM thiamine added to cis, −45 mV)?
The value was 6.9±0.6%.

What about the “Ires%(thiamine), closed state” value (Y27A-TbpA; Y27A-TbpA, thiamine-bound state) of the same compound?
Its value is 48.4±0.9%.

What about the koff (Y27A-TbpA; read-out: k off(cis)) of the same compound?
Its koff is 1.8 ± 0.3 s⁻¹.

And the koff (Y27A-TbpA; read-out: k off(trans))?
The koff was 1.7 ± 0.1 s⁻¹.

And the kon (Y27A-TbpA; read-out: k on(cis))?
The kon was 6.9e+07 ± 9e+06 M⁻¹ s⁻¹.

And the kon (Y27A-TbpA; read-out: k on(trans))?
Its kon is 1.4e+07 ± 3e+06 M⁻¹ s⁻¹.

And the “effect of addition of thiamine to the trans chamber” value (Y27A-TbpA; thiamine added to trans, Y27A-TbpA in cis)?
The value was “induced thiamine events”.

And the Hill coefficient (Y27A-TbpA; thiamine, cis and trans)?
The Hill coefficient was 1.

What about the Kd (WT-TbpA [2]) of the same compound?
Its Kd is 67 ± 5 nM.

What does the source list for `Cc1ncc(C[n+]2csc(CCO[P@](=O)(O)OP(=O)(O)O)c2C)c(N)n1` [ThDP, thiamine diphosphate]?
Kd (Y27A-TbpA): ~2000 nM; ΔIres%(ThDP1) (Y27A-TbpA; 2 μM ThDP added to cis, first type of event): 4.0±0.1%; ΔIres%(ThDP2) (Y27A-TbpA; 2 μM ThDP added to cis, second type of event): 7.2±0.1%; capture frequency for both events (Y27A-TbpA; 2 μM ThDP, cis): 6.5 ± 3 µM⁻¹ s⁻¹; koff (Y27A-TbpA; read-out: k off(ThDP1)): 2.9 ± 0.4 s⁻¹; koff (Y27A-TbpA; read-out: k off(ThDP2)): 1.7 ± 0.3 s⁻¹

With `Cc1ncc(C[n+]2csc(CCOP(=O)(O)O)c2C)c(N)n1` [ThMP, thiamine monophosphate] as the compound, how does the “ΔIres%(ThMP1)” value (Y27A-TbpA; 0.1 μM ThMP added to cis, first kind of bound event) read?
The value was 4.8±0.2%.

What about the “ΔIres%(ThMP2)” value (Y27A-TbpA; 0.1 μM ThMP added to cis, second kind of bound event) of the same compound?
Its value is 7.3±0.3%.

And the kon (Y27A-TbpA; read-out: capture frequency (an approximate k on) for both events)?
The kon was 1.6e+07 ± 4e+06 M⁻¹ s⁻¹.

And the koff (Y27A-TbpA; read-out: k off(ThMP1))?
The koff was 2.3 ± 0.4 s⁻¹.

What about the koff (Y27A-TbpA; read-out: k off(ThMP2)) of the same compound?
The koff was 2 ± 0.2 s⁻¹.
